Where two headings read alike, the source gives them in different places. Each block holds one compound with its values, some of them ahead of it.
Assays:
[1] = test system: IRF3 activation in PD-L1 high HEK293T STING reporter cell line; test: IRF3 activation in HEK293T STING reporter cells, high PD-L1; format: cell-based, human; details: for EC50: 20 hours; for Potency shift: with compound P27 (1 μM) versus no competition
Procedure: (§1) HEK293T STING reporter cell line was purchased from Invivogen and expressed low level of PD-L1. This cell line was then engineered at Incyte Research Institute to overexpress human PD-L1. Both PD-L1 high and PD-L1 low HEK293T cell lines were plated at 100,000 cells/100 μL/well in 10% fetal calf serum-containing DMEM culture medium in a 96-well flat bottom plate. Serial dilutions of PD-L1 small molecule-conjugated STING agonists were then added to the corresponding wells, and incubated for 20 hours at 37° C. In a competition study setting, 1 μM of a PD-L1 small molecule was added in the corresponding wells to compete with the binding of PD-L1 small molecule-conjugated STING agonists. At the end of the incubation, the culture supernatants were carefully removed from each well, and the amount of IRF3 activation was determined by adding Quanti-Blue substrate in accordance with the manufacturer's protocol.
(§2) 293T-Dual hSTING-R232 (ISG/KI-IFNb) cells that were generated from 293T-Dual Null (ISG/KI-IFNb) cells by stable transfection of the R232 isoform of human STING were purchased from Invivogen (Invivogen #293d-r232).
(§3) This cell line expresses an ISRE-inducible SEAP (secreted embryonic alkaline phosphatase) reporter construct, which monitors the activation of interferon regulatory factor (IRF) and its binding to ISRE (IFN-stimulated response elements). These reporter cells express low level of PD-L1. Human PD-L1 was then overexpressed in these cells through stable transfection.
(§4) These 293T-Dual hSTING-R232 reporter cells as well as293T-Dual hSTING-R232 reporter cells overexpressing huPD-L1 were treated with various concentrations of STING compounds for 20 hours. After 20 hours, interferon regulatory factor (IRF) activity was assessed by measuring SEAP levels in the supernatant using QUNTI-Blue. EC50 values were generated by curve fit in Prism software.

[2] = test system: IRF3 activation in PD-L1 low HEK293T STING reporter cell line; test: IRF3 activation in HEK293T STING reporter cells, low PD-L1; format: cell-based, human; details: 20 hours, read-out: IRF Activation EC50 (nM), Low PD-L1
Procedure: as §1, §2, §3, §4

PD-L1 [3] = target: T1, PD-L1 (Homo sapiens (Human), UniProt Q9NZQ7); test: PD-L1 surface levels on HEK293T STING reporter cells, high PD-L1; format: cell-based
T1 sequence (Q9NZQ7 19-290): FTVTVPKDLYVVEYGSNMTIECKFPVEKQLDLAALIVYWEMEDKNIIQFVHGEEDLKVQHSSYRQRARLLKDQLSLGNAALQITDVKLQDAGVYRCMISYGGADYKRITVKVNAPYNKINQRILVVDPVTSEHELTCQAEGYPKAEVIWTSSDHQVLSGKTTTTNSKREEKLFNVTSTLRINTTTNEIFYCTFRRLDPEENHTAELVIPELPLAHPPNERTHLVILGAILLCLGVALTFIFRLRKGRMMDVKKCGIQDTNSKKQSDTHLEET
Procedure: (§5) To determine PD-L1 expression on HEK cells after treatment of PD-L1-small molecule conjugated STING agonists, cells were harvested at 20 hours post-treatment. Single cell suspensions were then stained with phycoerythrin-conjugated anti-PD-L1 antibody (BD Bioscience), and the PD-L1 expression were then analyzed by flow cytometry. Mean fluorescence intensity was used as the relative level of surface PD-L1 expression on cells (FIG. 1 and Table 6).
(§6) Also, cells were stained with PE-conjugated anti-human PD-L1 antibody to determine surface PD-L1 expression. Cell acquisition was performed on BD LSRFortessa X-20 (BD Biosciences). Data was analyzed using FlowJo software. IC50 values were calculated using Prism Software.

PD-L1 [4] = target: T1, PD-L1; test: PD-L1 surface levels on HEK293T STING reporter cells, low PD-L1; format: cell-based
Procedure: as §5, §6

[5] = test system: IFNβ production in CD11b+ monocytes; test: IFN-beta induction in CD11b+ monocytes from healthy donor PBMC; format: cell-based, human; details: CD11b+ monocyte cultures, 20 hours, mean ± SEM
Procedure: (§7) CD11b^+ cells were isolated from healthy PBMCs as well as Pleural effusion samples using Miltenyi isolation kit according to manufacturer's protocol. Cells were seeded in 96 well plates at the density of 300,000 cells/wells, and then treated with various concentrations of compounds for 20 hours. After 20 hours, IFN-beta secretion levels were evaluated in the culture supernatants by MSD singleplex assay. EC50 values were calculated using Prism software.
(§8) Different naked STING agonisst and PD-L1-targeted small molecule-STING agonist conjugates were added to CD11b^+ monocytes cultures isolated from healthy donor blood or lung cancer patients' pleural effusions. Culture supernatants were collected 20 hours later and IFNβ production were determined using MSD singleplex assay.

[6] = test system: IFNβ production in CD11b+ monocytes; test: IFN-beta induction in CD11b+ monocytes from lung cancer pleural effusions; format: cell-based, human; details: CD11b+ monocyte cultures, lung cancer pleural effusion, 20 hours; read-out: EC50 for IFNβ induction, Cancer patient
Procedure: as §7, §8

PD-L1 [7] = target: T1, PD-L1; test: Direct method for PD-L1 internalization in CHO-PD-L1 cells; format: cell-based; details: 40 nM pHrodo-labelled antibody, 5 to 16 hours, versus IgG control
Procedure: Endocytosis or internalization of PD-L1 was measured by two different methods, one direct and the other indirect. In the direct method, an anti PD-L1 antibody labeled with a pH sensitive fluorophore is incubated with PD-L1 expressing cells. Upon internalization and trafficking of the antibody-PD-L1 complex to low pH endosomes, fluorescence is emitted. In the indirect method, cell surface PD-L1 is measured using an anti PD-L1 antibody after incubation with a compound to determine remaining, non-internalized receptor.
For the direct measurement, biotinylated anti-PD-L1 antibody (BPS Biosciences) or Atezolizumab, biotinylated with a 20-fold excess of biotin using the EZ-Link™ Sulfo-NHS-LC-Biotin reagents (ThermoFisher), were labeled with pHrodo™ Red Avidin (Life Technologies) conjugate. Equimolar solutions of the antibody and pHrodo™ Red avidin (4.2 uM each) were incubated on ice for 2 hours in the dark in a buffer composed of 40 mM Tris-HCl, pH 8.0, 110 mM NaCl, 2.2 mM KCl, 20% glycerol, and 1% bovine serum albumin The mixture was centrifuged for 1 minute at 1000 rpm, and the clarified supernatant was used in subsequent assays. […] The cells were analyzed by flow cytometry, and internalized antibody-receptor complex was detected using a C6 Accuri Flow Cytometer (excitation with […] and emission collected with a 585/40 bandpass filter).

[8] = high PD-L1 cells, read-out: IRF Activation EC50 (nM), High PD-L1
[9] = no competition, read-out: IRF Activation EC50 (nM), No competition
[10] = read-out: IRF Activation EC50 (nM), With compound P27 (1 μM), competition with compound P27 1 μM

Compound: CCn1nc(C)cc1C(=O)Nc1nc2cc(C(N)=O)cc(OC)c2n1C/C=C/Cn1c(NC(=O)c2cc(C)nn2CC)nc2cc(C(N)=O)cc(OCCCNC(=O)CCNC(=O)OCc3ccc(NC(=O)[C@H](CCCNC(N)=O)NC(=O)[C@@H](NC(=O)CCCN4CCc5c(nc(C(=O)Nc6cccc(-c7cccc(NC(=O)c8nc9c(n8C)CCN(CCCC(=O)O)C9)c7Cl)c6Cl)n5C)C4)C(C)C)cc3)c21 [Example 2]
EC50 [1, 8]: < 50 nM | EC50 [1, 9]: < 50 nM | EC50 [1, 10]: 50 to 200 nM | Potency shift [1]: >20 | EC50 [2]: 50 to 200 nM | IC50 (PD-L1 [3]): < 50 nM | IC50 (PD-L1 [4]): > 1000 nM

Compound: CCn1nc(C)cc1C(=O)Nc1nc2cc(C(N)=O)cc(OCCCNC(=O)[C@H](CC(=O)O)NC(=O)[C@H](CC(=O)O)NC(=O)[C@H](CCCNC(=N)N)NC(=O)[C@H](CC(=O)O)NC(=O)CCCN3CCc4c(nc(C(=O)Nc5cccc(-c6cccc(NC(=O)c7nc8c(n7C)CCN(CCCC(=O)O)C8)c6Cl)c5Cl)n4C)C3)c2n1C/C=C/Cn1c2nc(-c3cc(C)nn3CC)ncc2c2cc(C(N)=O)cc(OC)c21 [Example 7]
EC50 [1, 8]: < 50 nM | EC50 [2]: 50 to 200 nM | IC50 (PD-L1 [3]): < 50 nM | EC50 [5]: 2010 ± 308 nM | EC50 [6]: 643 nM

Compound: CCn1nc(C)cc1C(=O)Nc1nc2cc(C(N)=O)cc(OC)c2n1C/C=C/Cn1c(NC(=O)c2cc(C)nn2CC)nc2cc(C(N)=O)cc(OCCCNC(=O)CCNC(=O)OCCSSC[C@H](NC(=O)[C@H](CC(=O)O)NC(=O)[C@H](CC(=O)O)NC(=O)[C@H](CCCNC(=N)N)NC(=O)[C@H](CC(=O)O)NC(=O)CCCN3CCc4c(nc(C(=O)Nc5cccc(-c6cccc(NC(=O)c7nc8c(n7C)CCN(CCCC(=O)O)C8)c6Cl)c5Cl)n4C)C3)C(=O)O)c21 [Example 5]
EC50 [1, 8]: < 50 nM | EC50 [1, 9]: < 50 nM | EC50 [1, 10]: 200 to 1000 nM | Potency shift [1]: >20 | EC50 [2]: 200 to 1000 nM | IC50 (PD-L1 [3]): < 50 nM | IC50 (PD-L1 [4]): > 1000 nM

PD-L1 internalization (direct method) (PD-L1 [7]): dos not cause PD-L1 internalization
Compound: Atezolizumab

Compound: CCn1nc(C)cc1C(=O)Nc1nc2cc(C(N)=O)cc(OC)c2n1C/C=C/Cn1c(NC(=O)c2cc(C)nn2CC)nc2cc(C(N)=O)cc(OCCCNC(=O)[C@H](CC(=O)O)NC(=O)[C@H](CC(=O)O)NC(=O)[C@H](CCCNC(=N)N)NC(=O)[C@H](CC(=O)O)NC(=O)CCCN3CCc4c(nc(C(=O)Nc5cccc(-c6cccc(NC(=O)c7nc8c(n7C)CCN(CCCC(=O)O)C8)c6Cl)c5Cl)n4C)C3)c21 [Example 1]
EC50 [1, 8]: < 50 nM | EC50 [1, 9]: < 50 nM | EC50 [1, 10]: 200 to 1000 nM | Potency shift [1]: >100 | EC50 [2]: 200 to 1000 nM | IC50 (PD-L1 [3]): < 50 nM | IC50 (PD-L1 [4]): > 1000 nM | EC50 [5]: 5030 ± 1260 nM | EC50 [6]: 406 nM

Reference: patent publication US11596692B1 (Incyte Corporation, priority 2018, dated 2023)
